# Source: patent publication US11529367B2, “Radiation damage protective agent” (MiZ Company Limited, priority 2016, dated 2022)
# Tested on: cancer patients subjected to IMRT irradiation (bone marrow damage by radiation)
# Conditions: mean±SE, n=16, before treatment taken as 1
# Protocol: These patients were subjected to IMRT irradiation integrated with a computed tomograph (CT). Irradiation was in principle performed on a schedule of once a day, five times per week, and this schedule was repeated. Radiation was applied at 1 to 5 locations for 5 to 20 minutes once, and the number of times irradiation was performed was 5 to 20.
# These patients were housed in a hyperbaric capsule (APF 2, 700×1900 mm; oxygen concentration: 28% by volume; Air Press Co., Ltd.) at 1.35 atm for 30 minutes after each irradiation with radiation to alleviate the adverse effects.
# In addition, 16 patients (8 males and 8 females) who had visited from April 2016 until November 2016 were included in the hydrogen group. These patients were housed in the capsule similar to the above-mentioned capsule except that a hydrogen gas inhaler (MHG-44280, MiZ Company Limited), which generates approximately 6.5% by volume of hydrogen gas (4 L/min) by electrolysis of water, was connected in series with and upstream the air intake of the pressurizing device for the hyperbaric capsule provided outside the capsule, so as to feed high-pressure air containing hydrogen gas into the capsule, while the patients were allowed to inhale, via the nasal cannula, for 30 minutes, 4% by volume to 6% by volume of hydrogen gas (4 L/min) carried through a Y-shaped tube by which the air outlets of two hydrogen gas inhalers (MHG-2070 and MHG-2140, MiZ Company Limited) provided in the capsule were connected in parallel. The hydrogen gas concentration in the ceiling portion of the capsule was approximately 0.2% by volume.
# Blood samples were taken periodically from both groups of patients before, during and after radiation treatment. The analysis items of blood were the white blood cell count (WBC), red blood cell count (RBC), hemoglobin level (Hb), hematocrit level (Ht) and platelet count (PLT), and these were used as indicators for hematopoietic function.
# [1] = 4-6% by volume hydrogen gas inhaled 30 min in hyperbaric capsule at 1.35 atm, no significant difference vs control
smiles,measurement,setting,value
"[HH] [H2, hydrogen gas]",WBC ratio: relative value of the white blood cell count (WBC) immediately after radiation treatment to the WBC before radiation treatment,"4-6% by volume hydrogen gas inhaled 30 min in hyperbaric capsule at 1.35 atm after each irradiation, p<0.01 vs control",0.612±0.088
same,Hb ratio: relative value of the hemoglobin level (Hb) immediately after radiation treatment to the Hb before radiation treatment,[1],0.966±0.029
same,Ht ratio: relative value of the hematocrit level (Ht) immediately after radiation treatment to the Ht before radiation treatment,[1],0.953±0.027
same,RBC ratio: relative value of the red blood cell count (RBC) immediately after radiation treatment to the RBC before radiation treatment,[1],0.985±0.027
same,PLT ratio: relative value of the platelet count (PLT) immediately after radiation treatment to the PLT before radiation treatment,"4-6% by volume hydrogen gas inhaled 30 min in hyperbaric capsule at 1.35 atm, p<0.05 vs control",0.752±0.130
